Columns and labels:
FKBP12^F36V-MELK(sg3R) = test: dTAG-induced degradation, immunoblot; format: cell-based; settings: MELK−/− MDA-MB-468-FKBP12^F36V-MELK(sg3R) cells
Description: Four dTAG molecules (7, 13, 36 and 47) that vary in linker length and chemical structure were tested for their efficiency at depleting FKBP12^F36V-MELK(sg3R) (Figure 4A, Figure 4—figure supplement 3).
Figure 4. […] (A) Chemical structure of heterobifunctional dTAG molecule dTAG-47. See also Figure 4—figure supplement 3 for the chemical structures of dTAG-7, dTAG-13 and dTAG-36. (B) Immunoblots for MELK and GAPDH after treatment of dTAG-7, 13, 36, and 47 at indicated concentrations in MELK−/− MDA-MB-468-FKBP12^F36V-MELK(sg3R) cells for 4 hours. See Figure 4—figure supplement 1 for details of the generation of MELK−/− MDA-MB-468-FKBP12^F36V-MELK(sg3R) clones. (C) Same as in 4B, but with treatment at 500 nM and extended treatment times for 14, 24, 48, and 72 hours. (D) Changes in abundance of 7270 proteins (peptide count ≥2) comparing MELK−/− MDA-MB-468-FKBP12^F36V-MELK cells treated with dTAG-7 (250 nM) or DMSO for 1 hour, versus p-value (dTAG-7: triplicate, DMSO: duplicate, limma moderated t-test). See also Figure 4—source datas 1 and 2 for the original and the processed data. (E) Crystal violet staining image showing parental MDA-MB-468 cells and MELK−/− MDA-MB-468-FKBP12^F36V-MELK(sg3R) cells after treatment with DMSO or 500 nM of dTAG-47 for 9 days. Immunoblots showing MELK and GAPDH from a duplicate plate on Day 9 confirmed sustained depletion of FKBP12^F36V-MELK(sg3R). These are representative data from one of two independent experiments. Figure 4—source data 1. Raw integrated ion intensities from quantitative multiplexed proteomics. Figure 4—source data 2. Processed Data and Statistical Analysis by limma (topTable). Figure 4—figure supplement 1. Single clones selected from MDA-MB-468-FKBP12^F36V-MELK(sg3R) cells subject to CRISPR/Cas9-mediated knockout of endogenous MELK. Immunoblots for MELK and GAPDH in single cell clones selected from MDA-MB-468-FKBP12^F36V-MELK(sg3R) transfected with Cas9/sgMELK-3 to knockout endogenous MELK. Clone 1D4 is clone 1 and clone 1A3 is clone 2 in Figure 4. Clone 1D4 was confirmed with heterozygous −1 and +1 indels; clone 1A3 was confirmed with homozygous −1 deletions. [drawing 5] Figure 4—figure supplement 2. […] (A) Immunoblots for MELK, cyclin B1 and GAPDH in asynchronous versus M-phase arrested MDA-MB-468 cells and MDA-MB-468-FKBP12^F36V-MELK(sg3R) cells (clone 1). […] Chemical structures of dTAG molecules. FKBP12^F36V-binding ligands conjugated by variable linkers to thalidomide or pomalidomide, including (A) dTAG-7, (B) dTAG-13 and (C) dTAG-36 are capable of inducing degradation of FKBP12^F36V-tagged proteins of interest. [drawing 7]

MELK = biological target: T1, MELK (Homo sapiens, UniProt P62942+Q14680); test: Quantitative multiplexed proteomics (TMT LC-MS3); format: cell-based; settings: 250 nM, 60 min, MELK−/− MDA-MB-468-FKBP12^F36V-MELK cells
T1 construct: expressed in transfected cells; host or cells: MDA-MB-468 (lentiviral transduction, endogenous MELK knocked out)
Description: (§1) MELK−/− MDA-MB-468-FKBP12^F36V-MELK cells were treated in duplicates with DMSO for 30 minutes or 60 minutes, or in triplicates with dTAG-7 (250 nM) for 30 minutes or 60 minutes. Cells were washed with ice-cold PBS once, collected by scraping and centrifugation, and lysed in 1 mL of lysis buffer (8 M urea, 1% SDS, 50 mM Tris pH8.5 supplemented with protease and phosphatase inhibitors). A micro-BCA assay (Pierce) was used to determine the protein concentration of each sample. A total of 1200 µg of proteins from each sample was depleted of abundant proteins using two Pierce Top 12 protein depletion spin columns. Eluted proteins were combined, and protein concentration was determined by micro-BCA. […] Peptide quantification was performed using the micro-BCA assay (Pierce). […]
(§2) 12 of the 24 peptide fractions from the basic reverse phase fractionation (every other fraction) were analyzed with an LC-MS3 data collection strategy ([McAlister et al., 2014]) on an Orbitrap Fusion mass spectrometer (Thermo Fisher Scientific) equipped with a Proxeon Easy nLC 1000 for online sample handling and peptide separations. […]
(§3) A suite of in-house software tools were used to for. RAW file processing and controlling peptide and protein level false discovery rates, assembling proteins from peptides, and protein quantification from peptides as previously described. […]

EEA1 = test: Quantitative multiplexed proteomics (TMT LC-MS3); format: cell-based, human; settings: 250 nM, 60 min, MELK−/− MDA-MB-468-FKBP12^F36V-MELK cells
Description: as §1, with “micro-BCA. Proteins were precipitated on ice for 1 hour with 13% trichloroacetic acid (TCA), washed twice with acetone, and pellets were allowed to air dry. Proteins were resuspended in 6 M urea, 50 mM Tris pH 8.5, reduced with 5 mM dithiothreitol (DTT) at room temperature for 1 hour, and alkylated with 15 mM iodoacetamide in the dark at room temperature for 1 hour. Alkylation was quenched with DTT. Urea concentration was reduced to 4 M and proteins were digested with LysC (1:50; enzyme:protein) for 6 hours at 25°C. The LysC digestion was diluted to 1 M urea, 50 mM Tris pH 8.5 and then digested with trypsin (1:100; enzyme:protein) overnight at 37°C.” for “micro-BCA.”
as §2, §3

MKL1 = test: Quantitative multiplexed proteomics (TMT LC-MS3); format: cell-based, human; settings: 250 nM, 60 min, MELK−/− MDA-MB-468-FKBP12^F36V-MELK cells
Description: as §1, with “micro-BCA. Proteins were precipitated on ice for 1 hour with 13% trichloroacetic acid (TCA), washed twice with acetone, and pellets were allowed to air dry. Proteins were resuspended in 6 M urea, 50 mM Tris pH 8.5, reduced with 5 mM dithiothreitol (DTT) at room temperature for 1 hour, and alkylated with 15 mM iodoacetamide in the dark at room temperature for 1 hour. Alkylation was quenched with DTT. Urea concentration was reduced to 4 M and proteins were digested with LysC (1:50; enzyme:protein) for 6 hours at 25°C. The LysC digestion was diluted to 1 M urea, 50 mM Tris pH 8.5 and then digested with trypsin (1:100; enzyme:protein) overnight at 37°C.” for “micro-BCA.”
as §2, §3

HNRNPR = test: Quantitative multiplexed proteomics (TMT LC-MS3); format: cell-based, human; settings: 250 nM, 60 min, MELK−/− MDA-MB-468-FKBP12^F36V-MELK cells
Description: as §1, with “micro-BCA. Proteins were precipitated on ice for 1 hour with 13% trichloroacetic acid (TCA), washed twice with acetone, and pellets were allowed to air dry. Proteins were resuspended in 6 M urea, 50 mM Tris pH 8.5, reduced with 5 mM dithiothreitol (DTT) at room temperature for 1 hour, and alkylated with 15 mM iodoacetamide in the dark at room temperature for 1 hour. Alkylation was quenched with DTT. Urea concentration was reduced to 4 M and proteins were digested with LysC (1:50; enzyme:protein) for 6 hours at 25°C. The LysC digestion was diluted to 1 M urea, 50 mM Tris pH 8.5 and then digested with trypsin (1:100; enzyme:protein) overnight at 37°C.” for “micro-BCA.”
as §2, §3

T1 sequence (P62942+Q14680 fused P62942:F37V): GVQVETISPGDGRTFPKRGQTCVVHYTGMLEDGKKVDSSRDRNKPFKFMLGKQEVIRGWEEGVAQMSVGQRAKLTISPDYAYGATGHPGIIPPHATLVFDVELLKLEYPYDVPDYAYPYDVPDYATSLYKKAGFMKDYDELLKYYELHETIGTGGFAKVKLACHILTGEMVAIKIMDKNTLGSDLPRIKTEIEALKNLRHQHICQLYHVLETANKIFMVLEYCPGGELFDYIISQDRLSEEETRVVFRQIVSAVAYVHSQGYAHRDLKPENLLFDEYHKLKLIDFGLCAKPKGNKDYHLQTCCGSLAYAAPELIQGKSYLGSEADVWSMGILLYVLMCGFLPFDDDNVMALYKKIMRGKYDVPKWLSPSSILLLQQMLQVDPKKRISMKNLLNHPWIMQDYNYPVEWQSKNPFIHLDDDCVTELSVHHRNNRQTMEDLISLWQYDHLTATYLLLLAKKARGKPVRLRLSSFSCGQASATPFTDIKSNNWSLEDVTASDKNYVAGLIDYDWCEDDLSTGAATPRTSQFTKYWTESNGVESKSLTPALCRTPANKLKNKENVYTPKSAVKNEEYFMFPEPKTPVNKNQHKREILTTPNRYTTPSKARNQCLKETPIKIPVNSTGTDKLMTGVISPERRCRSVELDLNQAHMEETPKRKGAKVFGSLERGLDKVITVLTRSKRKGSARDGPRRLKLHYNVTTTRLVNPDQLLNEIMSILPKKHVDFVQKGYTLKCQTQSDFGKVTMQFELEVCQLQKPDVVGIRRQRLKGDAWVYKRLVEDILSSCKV
T1 sequence (Q96SW2 whole entry partner): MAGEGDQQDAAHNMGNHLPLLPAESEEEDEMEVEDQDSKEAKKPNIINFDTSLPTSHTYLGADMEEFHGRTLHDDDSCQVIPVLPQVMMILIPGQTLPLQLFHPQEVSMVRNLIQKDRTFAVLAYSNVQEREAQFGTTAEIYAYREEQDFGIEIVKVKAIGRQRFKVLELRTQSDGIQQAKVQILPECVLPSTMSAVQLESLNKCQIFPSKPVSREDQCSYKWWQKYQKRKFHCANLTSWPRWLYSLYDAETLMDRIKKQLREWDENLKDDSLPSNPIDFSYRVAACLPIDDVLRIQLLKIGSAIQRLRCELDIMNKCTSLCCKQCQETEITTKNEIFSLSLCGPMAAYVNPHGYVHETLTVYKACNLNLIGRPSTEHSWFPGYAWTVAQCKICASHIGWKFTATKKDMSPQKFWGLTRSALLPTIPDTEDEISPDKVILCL
T1 sequence (Q16531 2-1140 partner limits assumed): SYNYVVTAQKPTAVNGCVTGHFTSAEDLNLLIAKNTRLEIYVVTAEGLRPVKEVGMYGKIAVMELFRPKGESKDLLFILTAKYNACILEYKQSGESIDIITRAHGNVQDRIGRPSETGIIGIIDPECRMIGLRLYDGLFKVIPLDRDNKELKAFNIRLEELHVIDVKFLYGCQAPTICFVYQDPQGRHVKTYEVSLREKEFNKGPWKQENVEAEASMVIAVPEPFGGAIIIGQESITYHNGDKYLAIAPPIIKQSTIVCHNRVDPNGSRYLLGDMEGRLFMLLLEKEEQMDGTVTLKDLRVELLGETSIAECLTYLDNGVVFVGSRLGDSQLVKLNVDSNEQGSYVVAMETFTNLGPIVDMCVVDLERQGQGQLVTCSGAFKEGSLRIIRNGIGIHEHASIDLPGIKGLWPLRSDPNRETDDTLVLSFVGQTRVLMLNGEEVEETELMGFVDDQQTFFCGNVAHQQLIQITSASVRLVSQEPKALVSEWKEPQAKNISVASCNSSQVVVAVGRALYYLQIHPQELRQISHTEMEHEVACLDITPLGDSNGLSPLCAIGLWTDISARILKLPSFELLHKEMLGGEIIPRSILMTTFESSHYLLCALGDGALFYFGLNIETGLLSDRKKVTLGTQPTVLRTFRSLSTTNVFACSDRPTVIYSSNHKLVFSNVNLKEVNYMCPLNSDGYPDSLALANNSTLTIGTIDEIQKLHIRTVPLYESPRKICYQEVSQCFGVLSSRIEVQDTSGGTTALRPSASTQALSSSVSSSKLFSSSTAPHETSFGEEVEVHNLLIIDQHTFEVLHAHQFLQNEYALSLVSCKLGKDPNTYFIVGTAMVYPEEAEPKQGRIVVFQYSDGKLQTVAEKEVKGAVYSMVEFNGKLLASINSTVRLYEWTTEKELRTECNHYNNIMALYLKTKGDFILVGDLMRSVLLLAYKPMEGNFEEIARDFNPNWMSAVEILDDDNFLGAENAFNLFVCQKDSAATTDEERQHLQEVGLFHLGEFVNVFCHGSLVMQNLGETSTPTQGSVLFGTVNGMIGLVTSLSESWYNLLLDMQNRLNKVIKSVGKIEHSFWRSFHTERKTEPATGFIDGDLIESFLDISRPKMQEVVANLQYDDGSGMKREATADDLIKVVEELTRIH

In the case of `CCC(C(=O)N1CCCCC1C(=O)OC(CCc1ccc(OC)c(OC)c1)c1ccccc1OCC(=O)NCCCOCCOCCOCCCNC(=O)COc1cccc2c1C(=O)N(C1CCC(=O)NC1=O)C2=O)c1cc(OC)c(OC)c(OC)c1` (centres unmarked) [dTAG-7], the “time to efficient depletion of FKBP12^F36V-MELK(sg3R)” value (FKBP12^F36V-MELK(sg3R)) is reported as no more than 4 h, the “logFC (log2 fold change of dTAG-7 to DMSO) MELK” value (MELK) is reported as -0.8583 and the “logFC (log2 fold change of dTAG-7 to DMSO) EEA1” value (EEA1) is reported as -0.08592. For the same compound, the “logFC (log2 fold change of dTAG-7 to DMSO) MKL1” value (MKL1) was -0.2984 and the “logFC (log2 fold change of dTAG-7 to DMSO) HNRNPR” value (HNRNPR) was 0.28.

From article PMC5605198, “MELK is not necessary for the proliferation of basal-like breast cancer cells” (eLife, 2017)
